From patent publication US10131652B2, “Pyrimidinyloxy benzene derivatives as herbicides” (E. I. DU PONT DE NEMOURS AND COMPANY, priority 2014, dated 2018)

Legend:
Experiment in all cases: Test D pre-/postemergence plant response
Assay type in all cases: in vivo
[1] = system: ragweed (common ragweed, Ambrosia elatior)
Method in brief: (§1)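 Test chemicals were formulated in a non-phytotoxic solvent mixture containing surfactant and applied either preemergence to seeds in loam–sand soil or postemergence to plants 2 to 18 cm tall (1- to 4-leaf stage). Response was rated visually against controls after 13 to 15 days, from 0 (none) to 100 (complete control).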

[2] = system: blackgrass (Alopecurus myosuroides)
Method in brief: as §1

corn (Zea mays) = system: corn (Zea mays)
Method in brief: as §1

[3] = system: giant foxtail (Setaria faberii)
Method in brief: as §1

[4] = system: winter wheat (Triticum aestivum)
Method in brief: as §1

[5] = system: pigweed (Amaranthus retroflexus)
Method in brief: as §1

soybean (Glycine max) = system: soybean (Glycine max)
Method in brief: as §1

[6] = system: large (Lg) crabgrass (Digitaria sanguinalis)
Method in brief: as §1

[7] = system: galium (catchweed bedstraw, Galium aparine)
Method in brief: as §1

[8] = system: morningglory (Ipomoea coccinea)
Method in brief: as §1

[9] = system: barnyardgrass (Echinochloa crus-galli)
Method in brief: as §1

[10] = system: johnsongrass (Sorghum halepense)
Method in brief: as §1

[11] = system: lambsquarters (Chenopodium album)
Method in brief: as §1

[12] = system: waterhemp (common waterhemp, Amaranthus rudis)
Method in brief: as §1

[13] = system: yellow nutsedge (Cyperus esculentus)
Method in brief: as §1

[14] = system: oilseed rape (Brassica napus)
Method in brief: as §1

[15] = system: Italian ryegrass (Lolium multiflorum)
Method in brief: as §1

[16] = system: velvetleaf (Abutilon theophrasti)
Method in brief: as §1

[17] = Postemergence, 16 g ai/ha, scale 0 to 100 (0 no effect, 100 complete control)
[18] = Postemergence, 31 g ai/ha, scale 0 to 100 (0 no effect, 100 complete control)
[19] = Postemergence, 62 g ai/ha, scale 0 to 100, 0 no effect, 100 complete control
[20] = Postemergence, 125 g ai/ha, scale 0 to 100, 0 no effect, 100 complete control
[21] = Preemergence, 16 g ai/ha, scale 0 to 100 (0 no effect, 100 complete control)
[22] = Preemergence, 31 g ai/ha, scale 0 to 100 (0 no effect, 100 complete control)
[23] = Preemergence, 62 g ai/ha, scale 0 to 100 (0 no effect, 100 complete control)

Fc1ccc(Oc2ncc(Cl)cn2)c(-c2cc(C(F)F)on2)c1F [Compound 113]
98: Plant response rating, Crabgrass, Large [6, 21] | Plant response rating, Galium [7, 23] | Plant response rating (scale 0 to 100), Barnyardgrass ([9]; Preemergence, 62 g ai/ha) | Plant response rating (scale 0 to 100), Lambsquarters ([11]; Preemergence, 125 g ai/ha) | Plant response rating, Lambsquarters [11, 22] | Plant response rating, Lambsquarters [11, 23] | Plant response rating, Oilseed Rape [14, 21]
15: Blackgrass plant response rating [2, 18] | Barnyardgrass plant response rating [9, 18] | Plant response rating, Nutsedge, Yellow [13, 20] | Plant response rating, Nutsedge, Yellow [13, 23]
35: Plant response rating, Soybean (soybean (Glycine max); [21]) | Plant response rating, Morningglory [8, 22]
5: Blackgrass plant response rating [2, 17] | Corn plant response rating (corn (Zea mays); [17]) | Foxtail, Giant plant response rating [3, 17] | Foxtail, Giant plant response rating [3, 18] | Plant response rating, Wheat [4, 19] | Plant response rating, Wheat [4, 20] | Plant response rating, Wheat [4, 22] | Johnsongrass plant response rating [10, 17] | Johnsongrass plant response rating [10, 18] | Plant response rating, Johnsongrass [10, 19] | Nutsedge, Yellow plant response rating [13, 17] | Nutsedge, Yellow plant response rating [13, 18] | Plant response rating, Nutsedge, Yellow [13, 19] | Ryegrass, Italian plant response rating [15, 17] | Ryegrass, Italian plant response rating [15, 18] | Plant response rating, Ryegrass, Italian [15, 19] | Plant response rating, Ryegrass, Italian [15, 20] | Plant response rating, Ryegrass, Italian [15, 21]
75: Plant response rating, Soybean (soybean (Glycine max); [20]) | Morningglory plant response rating [8, 18]
20: Plant response rating, Corn (corn (Zea mays); [19]) | Plant response rating (scale 0 to 100), Wheat ([4]; Preemergence, 125 g ai/ha) | Crabgrass, Large plant response rating [6, 18] | Plant response rating, Morningglory [8, 21] | Plant response rating, Barnyardgrass [9, 19]
65: Plant response rating, Soybean (soybean (Glycine max); [19])
85: Plant response rating, Ragweed [1, 23] | Plant response rating, Foxtail, Giant [3, 21] | Morningglory plant response rating [8, 17] | Plant response rating, Morningglory [8, 19] | Plant response rating, Morningglory [8, 23] | Lambsquarters plant response rating [11, 18] | Plant response rating, Lambsquarters [11, 21] | Waterhemp plant response rating [12, 17] | Plant response rating, Waterhemp [12, 19] | Plant response rating, Velvetleaf [16, 22]
90: Plant response rating, Ragweed [1, 19] | Plant response rating, Ragweed [1, 20] | Plant response rating (scale 0 to 100), Ragweed ([1]; Preemergence, 125 g ai/ha) | Pigweed plant response rating [5, 17] | Pigweed plant response rating [5, 18] | Plant response rating, Soybean (soybean (Glycine max); [23]) | Plant response rating, Galium [7, 19] | Plant response rating, Galium [7, 20] | Plant response rating (scale 0 to 100), Galium ([7]; Preemergence, 125 g ai/ha) | Plant response rating, Galium [7, 21] | Plant response rating, Galium [7, 22] | Plant response rating, Johnsongrass [10, 23] | Plant response rating, Lambsquarters [11, 20] | Plant response rating, Waterhemp [12, 20] | Plant response rating, Oilseed Rape [14, 19] | Plant response rating, Oilseed Rape [14, 20]
95: Plant response rating, Pigweed [5, 19] | Plant response rating (scale 0 to 100), Morningglory ([8]; Preemergence, 125 g ai/ha) | Plant response rating, Barnyardgrass [9, 22] | Plant response rating, Lambsquarters [11, 19]
0: Plant response rating, Corn (corn (Zea mays); [21]) | Plant response rating, Corn (corn (Zea mays); [22]) | Wheat plant response rating [4, 17] | Wheat plant response rating [4, 18] | Plant response rating, Wheat [4, 21] | Plant response rating, Nutsedge, Yellow [13, 21]
10: Plant response rating, Blackgrass [2, 19] | Plant response rating, Blackgrass [2, 21] | Corn plant response rating (corn (Zea mays); [18]) | Plant response rating, Foxtail, Giant [3, 19] | Plant response rating, Foxtail, Giant [3, 20] | Plant response rating, Wheat [4, 23] | Crabgrass, Large plant response rating [6, 17] | Barnyardgrass plant response rating [9, 17] | Plant response rating, Johnsongrass [10, 20] | Plant response rating, Johnsongrass [10, 21] | Plant response rating, Nutsedge, Yellow [13, 22] | Plant response rating, Ryegrass, Italian [15, 22]
50: Oilseed Rape plant response rating [14, 18]
60: Ragweed plant response rating [1, 18] | Plant response rating (scale 0 to 100), Nutsedge, Yellow ([13]; Preemergence, 125 g ai/ha) | Plant response rating, Ryegrass, Italian [15, 23] | Velvetleaf plant response rating [16, 17] | Velvetleaf plant response rating [16, 18]
25: Plant response rating, Corn (corn (Zea mays); [20]) | Plant response rating, Corn (corn (Zea mays); [23]) | Plant response rating, Crabgrass, Large [6, 19] | Plant response rating, Crabgrass, Large [6, 20] | Plant response rating, Barnyardgrass [9, 20]
40: Plant response rating, Ragweed [1, 21] | Plant response rating, Blackgrass [2, 20] | Plant response rating, Blackgrass [2, 22] | Plant response rating (scale 0 to 100), Corn (corn (Zea mays); Preemergence, 125 g ai/ha) | Plant response rating, Soybean (soybean (Glycine max); [22])
55: Plant response rating, Ragweed [1, 22] | Soybean plant response rating (soybean (Glycine max); [18])
100: Plant response rating (scale 0 to 100), Foxtail, Giant ([3]; Preemergence, 125 g ai/ha) | Plant response rating, Foxtail, Giant [3, 22] | Plant response rating, Foxtail, Giant [3, 23] | Plant response rating, Pigweed [5, 20] | Plant response rating (scale 0 to 100), Pigweed ([5]; Preemergence, 125 g ai/ha) | Plant response rating, Pigweed [5, 21] | Plant response rating, Pigweed [5, 22] | Plant response rating, Pigweed [5, 23] | Plant response rating (scale 0 to 100), Crabgrass, Large ([6]; Preemergence, 125 g ai/ha) | Plant response rating, Crabgrass, Large [6, 22] | Plant response rating, Crabgrass, Large [6, 23] | Plant response rating (scale 0 to 100), Barnyardgrass ([9]; Preemergence, 125 g ai/ha) | Plant response rating (scale 0 to 100), Johnsongrass ([10]; Preemergence, 125 g ai/ha) | Plant response rating (scale 0 to 100), Waterhemp ([12]; Preemergence, 125 g ai/ha) | Plant response rating, Waterhemp [12, 21] | Plant response rating, Waterhemp [12, 22] | Plant response rating, Waterhemp [12, 23] | Plant response rating (scale 0 to 100), Oilseed Rape ([14]; Preemergence, 125 g ai/ha) | Plant response rating, Oilseed Rape [14, 22] | Plant response rating, Oilseed Rape [14, 23] | Plant response rating (scale 0 to 100), Velvetleaf ([16]; Preemergence, 125 g ai/ha) | Plant response rating, Velvetleaf [16, 23]
80: Ragweed plant response rating [1, 17] | Plant response rating (scale 0 to 100), Blackgrass ([2]; Preemergence, 125 g ai/ha) | Soybean plant response rating (soybean (Glycine max); [17]) | Plant response rating (scale 0 to 100), Soybean (soybean (Glycine max); Preemergence, 125 g ai/ha) | Galium plant response rating [7, 17] | Galium plant response rating [7, 18] | Plant response rating, Morningglory [8, 20] | Waterhemp plant response rating [12, 18] | Oilseed Rape plant response rating [14, 17]
70: Plant response rating, Blackgrass [2, 23] | Plant response rating, Johnsongrass [10, 22] | Lambsquarters plant response rating [11, 17] | Plant response rating (scale 0 to 100), Ryegrass, Italian ([15]; Preemergence, 125 g ai/ha) | Plant response rating, Velvetleaf [16, 19] | Plant response rating, Velvetleaf [16, 20] | Plant response rating, Velvetleaf [16, 21]
30: Plant response rating, Barnyardgrass [9, 21]
